# Results from patent EP4782448A1, “SUBSTITUTED PYRIDOTRIAZOLE COMPOUND, AND PREPARATION METHOD THEREFOR AND USE THEREOF” (Origiant Pharmaceutical Co., Ltd., priority 2023, dated 2025).
# Test system: HT-29 cells
# Experiment: In vitro assay for protection of HT-29 cells from necroptosis (TNFα/Smac mimetic/Z-VAD-FMK induction, CCK8 readout)
# Assay type: cell-based
# Settings: TNFα/Smac mimetic/Z-VAD-FMK for 24 h; inhibition of necroptosis; read-out: HT-29 (EC50)
row,SMILES,EC50
1,COCC(=O)Nc1nc2cc(-c3ccc4c(c3)c(C(=O)N[C@H](c3ccc(F)cc3)C(F)F)cn4C)ccn2n1 [Compound 166],< 1 nM
2,C[C@H](NC(=O)c1cn(C)c2ccc(-c3ccn4nc(NC(=O)CN5CC[C@H](O)C5)nc4c3)cc12)c1ccc(F)cc1 [Compound 41],< 1 nM
3,Cn1cc(C(=O)N[C@H]2CCCc3cc(F)ccc32)c2cc(-c3ccn4nc(NC(=O)[C@@H]5CCCO5)nc4c3)ccc21 [Compound 139],1 to 10 nM
4,CN(C)CC(=O)Nc1nc2cc(-c3ccc4c(c3)c(C(=O)N[C@H](c3ccc(F)cc3)C(F)F)cn4C)ccn2n1 [Compound 167],< 1 nM
5,Cn1cc(C(=O)N[C@@H](CF)c2ccc(F)cc2)c2cc(-c3ccn4nc(NC(=O)C5CC5F)nc4c3)ccc21 (stereo partly shown) [Compound 113],1 to 10 nM
6,CC(=O)Nc1nc2cc(-c3ccc4c(c3)c(C(=O)N[C@H]3CCCc5ccc(F)cc53)cn4C)ccn2n1 [Compound 145],1 to 10 nM
7,C[C@H](NC(=O)c1cn(C)c2ccc(-c3ccn4nc(NC(=O)CN5CCSCC5)nc4c3)cc12)c1ccc(Cl)cc1 [Compound 87],< 1 nM
8,C[C@H](NC(=O)c1cn(C)c2ccc(-c3ccn4nc(NC(=O)CN5CCC(F)(F)CC5)nc4c3)cc12)c1ccc(Cl)cc1 [Compound 86],< 1 nM
9,C[C@H](NC(=O)c1cn(C)c2ccc(-c3ccn4nc(NC(=O)C5(C(=O)O)CC5)nc4c3)cc12)c1ccc(F)cc1 [Compound 31],10 to 100 nM
10,CCOC(=O)C(=O)Nc1nc2cc(-c3ccc4c(c3)c(C(=O)N[C@@H](C)c3ccc(F)cc3)cn4C)ccn2n1 [Compound 10],1 to 10 nM
11,C[C@H](NC(=O)c1cn(C)c2ccc(-c3ccn4nc(NC(=O)[C@H]5CCCO5)nc4c3)cc12)c1ccc(F)cc1 [Compound 117],< 1 nM
12,Cn1cc(C(=O)N2N=CCC2c2ccc(F)cc2)c2cc(-c3ccn4nc(NC(=O)C5CC5)nc4c3)ccc21 (stereo not shown) [Compound 170],< 1 nM
13,C[C@H](NC(=O)c1cn(C)c2ccc(-c3ccn4nc(NC(=O)CN5CCN(C(=O)OC(C)(C)C)C[C@H]5C)nc4c3)cc12)c1ccc(F)cc1 [Compound 64],< 1 nM
14,CN1CCN(C(=O)Nc2nc3cc(-c4ccc5c(c4)c(C(=O)N[C@@H](CF)c4ccc(F)cc4)cn5C)ccn3n2)CC1 [Compound 95],< 1 nM
15,C[C@H](NC(=O)c1cn(C)c2ccc(-c3ccn4nc(NC(=O)CN5CCOCC5)nc4c3)cc12)C(C)(C)C [Compound 90],1000 to 10000 nM
16,C[C@H](NC(=O)c1cn(C)c2ccc(-c3ccn4nc(NC(=O)CN5CCOCC5)nc4c3)cc12)c1ccco1 [Compound 88],1 to 10 nM
17,C[C@H](NC(=O)c1cn(C)c2ccc(-c3ccn4nc(NC(=O)CN5CCC(F)(F)CC5)nc4c3)cc12)c1ccc(F)cc1 [Compound 47],< 1 nM
18,Cn1cc(C(=O)N2CCOC[C@@H]2c2ccc(F)cc2)c2cc(-c3ccn4nc(NC(=O)C5CC5)nc4c3)ccc21 [Compound 151],< 1 nM
19,C[C@H](NC(=O)c1cn(C)c2ccc(-c3ccn4nc(NC(=O)CN5CC(C#N)C5)nc4c3)cc12)c1ccc(F)cc1 [Compound 34],< 1 nM
20,Cn1cc(C(=O)N2N=CCC2c2ccc(F)cc2)c2cc(-c3ccn4nc(NC(=O)N5CCOCC5)nc4c3)ccc21 (stereo not shown) [Compound 172],1 to 10 nM
21,C[C@H](NC(=O)c1cn(C)c2ccc(-c3ccn4nc(NC(=O)CN5CC(F)(F)C5)nc4c3)cc12)c1ccc(Cl)cc1 [Compound 80],< 1 nM
22,COCCn1cc(C(=O)N[C@@H](CF)c2ccc(F)cc2)c2cc(-c3ccn4nc(NC(=O)CC#N)nc4c3)ccc21 [Compound 215],10 to 100 nM

row,SMILES,EC50
1,Cn1cc(C(=O)N[C@@H](CF)c2ccc(F)cc2)c2cc(-c3ccn4nc(NC(=O)C5CC5(F)F)nc4c3)ccc21 (stereo partly shown) [Compound 110],< 1 nM
2,C[C@H](NC(=O)c1cn(C)c2ccc(-c3ccn4nc(NC(=O)CN5CCN(C(=O)C6CC6)CC5)nc4c3)cc12)c1ccc(F)cc1 [Compound 50],< 1 nM
3,CCn1cc(C(=O)N[C@@H](CF)c2ccc(F)cc2)c2cc(-c3ccn4nc(NC(=O)N5CCOCC5)nc4c3)ccc21 [Compound 200],< 1 nM
4,C[C@H](NC(=O)c1cn(C)c2ccc(-c3ccn4nc(NC(=O)CNCC5CC5)nc4c3)cc12)c1ccc(F)cc1 [Compound 66],< 1 nM
5,C[C@H](NC(=O)c1cn(C)c2ccc(-c3ccn4nc(NC(=O)CN5CC[C@@H](F)C5)nc4c3)cc12)c1ccc(F)cc1 [Compound 20],< 1 nM
6,CC1CN(CC(=O)Nc2nc3cc(-c4ccc5c(c4)c(C(=O)N[C@@H](C)c4ccc(F)cc4)cn5C)ccn3n2)CCO1 (stereo partly shown) [Compound 45],< 1 nM
7,C[C@H](NC(=O)c1cn(C)c2ccc(-c3ccn4nc(NC(=O)CN5CCOC[C@H]5C)nc4c3)cc12)c1ccc(F)cc1 [Compound 72],< 1 nM
8,CC(=O)Nc1nc2cc(-c3ccc4c(c3)c(C(=O)N[C@H]3CCc5cc(C#N)ccc53)cn4C)ccn2n1 [Compound 132],100 to 1000 nM
9,Cn1cc(C(=O)N2CC(F)(F)CC2c2ccc(F)cc2)c2cc(-c3ccn4nc(NC(=O)N5CCOCC5)nc4c3)ccc21 (stereo not shown) [Compound 160],< 1 nM
10,C[C@H](NC(=O)c1cn(C)c2ccc(-c3ccn4nc(NC(=O)CN5CCC[C@@H](O)C5)nc4c3)cc12)c1ccc(F)cc1 [Compound 49],1 to 10 nM
11,Cn1cc(C(=O)N[C@H]2CCCc3ccc(F)cc32)c2cc(-c3ccn4nc(NC(=O)[C@H]5CCCO5)nc4c3)ccc21 [Compound 146],10 to 100 nM
12,CC(c1ccc(F)cc1)n1cnc(-c2cn(C)c3ccc(-c4ccn5nc(NC(=O)C6CC6F)nc5c4)cc23)n1 (stereo not shown) [Compound 209],100 to 1000 nM
13,Cn1cc(C(=O)N2N=CCC2c2ccc(F)cc2)c2cc(-c3ccn4nc(NC(=O)C5CCOC5)nc4c3)ccc21 (stereo not shown) [Compound 169],< 1 nM
14,C[C@H](NC(=O)c1cn(C)c2ccc(-c3ccn4nc(NC(=O)CN5CCC(O)(O)CC5)nc4c3)cc12)c1ccc(F)cc1 [Compound 5],< 1 nM
15,CN(C)CC(=O)Nc1nc2cc(-c3ccc4c(c3)c(C(=O)N[C@H]3CCc5ccc(F)cc53)cn4C)ccn2n1 [Compound 123],1 to 10 nM
16,Cn1cc(C2=NC(c3ccc(F)cc3)CO2)c2cc(-c3ccn4nc(NC(=O)C5CC5)nc4c3)ccc21 (stereo not shown) [Compound 212],10 to 100 nM
17,Cn1cc(C(=O)N[C@@H](CF)c2ccc(F)cc2)c2cc(-c3ccn4nc(NC(=O)CCl)nc4c3)ccc21 [Compound 94],< 1 nM
18,Cn1cc(C(=O)N[C@@H](CF)c2ccc(F)cc2)c2cc(-c3ccn4nc(NC(=O)[C@H]5CCCO5)nc4c3)ccc21 [Compound 104],1000 to 10000 nM
19,CN1CC[C@@H](C(=O)Nc2nc3cc(-c4ccc5c(c4)c(C(=O)N[C@@H](CF)c4ccc(F)cc4)cn5C)ccn3n2)C1 [Compound 100],< 1 nM
20,C[C@H](NC(=O)c1cn(C)c2ccc(-c3ccn4nc(N5CCOCC5)nc4c3)cc12)c1ccc(F)cc1 [Compound 219],1 to 10 nM
21,C[C@H](NC(=O)c1cn(C)c2ccc(-c3ccn4nc(NC(=O)c5ccnc(F)c5)nc4c3)cc12)c1ccc(F)cc1 [Compound 115],< 1 nM
22,C[C@H](NC(=O)c1cn(C)c2ccc(-c3ccn4nc(NC(=O)CN5CCC[C@H]5C(=O)O)nc4c3)cc12)c1ccc(F)cc1 [Compound 37],1 to 10 nM

row,SMILES,EC50
1,CN(C(=O)c1cn(C)c2ccc(-c3ccn4nc(NC(=O)C5CC5)nc4c3)cc12)[C@H]1CCc2cc(F)ccc21 [Compound 205],1 to 10 nM
2,C[C@H](NC(=O)c1cn(C)c2ccc(-c3ccn4nc(NC(=O)C5CC5F)nc4c3)cc12)C(C)(C)C (stereo partly shown) [Compound 92],100 to 1000 nM
3,Cn1cc(C(=O)N[C@@H]2C[C@H]2c2ccc(F)c(F)c2)c2cc(-c3ccn4nc(NC(=O)[C@H]5CCCO5)nc4c3)ccc21 [Compound 184],100 to 1000 nM
4,COC(C)C(=O)Nc1nc2cc(-c3ccc4c(c3)c(C(=O)N[C@@H](CF)c3ccc(F)cc3)cn4C)ccn2n1 (stereo partly shown) [Compound 112],< 1 nM
5,CN(C)CC(=O)Nc1nc2cc(-c3ccc4c(c3)c(C(=O)N[C@@H](CF)c3ccc(F)cc3)cn4C)ccn2n1 [Compound 101],< 1 nM
6,Cn1cc(C(=O)N[C@@H](CF)c2ccc(F)cc2)c2cc(-c3ccn4nc(NC(=O)CN5CCCCC5)nc4c3)ccc21 [Compound 96],< 1 nM
7,C[C@H](NC(=O)c1cn(C)c2ccc(-c3ccn4nc(NC(=O)CN5CCCC(CO)C5)nc4c3)cc12)c1ccc(F)cc1 (stereo partly shown) [Compound 44],1 to 10 nM
8,CCNCC(=O)Nc1nc2cc(-c3ccc4c(c3)c(C(=O)N[C@@H](C)c3ccc(F)cc3)cn4C)ccn2n1 [Compound 76],< 1 nM
9,Cn1cc(C(=O)N2CCC[C@H]2c2ccc(F)cc2)c2cc(-c3ccn4nc(NC(=O)C5CCOC5)nc4c3)ccc21 (stereo partly shown) [Compound 186],< 1 nM
10,CC(C(=O)Nc1nn(C)c2ccc(-c3ccn4nc(NC(=O)c5cnn(C)c5)nc4c3)cc12)c1ccc(F)cc1 (stereo not shown) [Compound 181],1000 to 10000 nM
11,C[C@H](NC(=O)c1cn(C)c2ccc(-c3ccn4nc(NC(=O)CN5CCOCC5=O)nc4c3)cc12)c1ccc(F)cc1 [Compound 16],10 to 100 nM
12,C[C@H](NC(=O)c1nn(C)c2ccc(-c3ccn4nc(NC(=O)C5CC5)nc4c3)cc12)c1ccc(F)cc1 [Compound 192],< 1 nM
13,C[C@H](NC(=O)c1cn(C)c2ccc(-c3ccn4nc(NC(=O)CN5CC[C@@H](O)C5)nc4c3)cc12)c1ccc(F)cc1 [Compound 12],< 1 nM
14,Cn1cc(C(=O)Nc2nc3cc(-c4ccc5c(c4)c(C(=O)N[C@@H](CF)c4ccc(F)cc4)nn5C)ccn3n2)cn1 [Compound 187],< 1 nM
15,C[C@H](NC(=O)c1cn(C)c2ccc(-c3ccn4nc(NC(=O)CN5CCOC[C@@H]5C)nc4c3)cc12)c1ccc(Cl)cc1 [Compound 82],< 1 nM
16,Cn1nc(C(=O)N[C@@H](CF)c2ccc(F)cc2)c2cc(-c3ccn4nc(NC(=O)N5CCOCC5)nc4c3)ccc21 [Compound 189],< 1 nM
17,Cn1cc(C(=O)Nc2nc3cc(-c4ccc5c(c4)c(C(=O)N4CCOC[C@@H]4c4ccc(F)cc4)cn5C)ccn3n2)cn1 [Compound 149],< 1 nM
18,Cn1cc(C2=NC(c3ccc(F)cc3)CO2)c2cc(-c3ccn4nc(NC(=O)C5CC5F)nc4c3)ccc21 (stereo not shown) [Compound 211],10 to 100 nM
19,Cn1cc(C(=O)N[C@H](c2ccc(F)cc2)C(F)F)c2cc(-c3ccn4nc(NC(=O)CN5CCCCC5)nc4c3)ccc21 [Compound 163],< 1 nM
20,Cn1cc(C(=O)N2CCC[C@H]2c2ccc(F)cc2)c2cc(-c3ccn4nc(NC(=O)C5CCCO5)nc4c3)ccc21 (stereo partly shown) [Compound 154],< 1 nM
